{"source": "patent US20250109127A1", "about": "“METHODS OF USE OF PHENOXYPROPYLAMINE COMPOUNDS TO TREAT DEPRESSION” (Minerva Neurosciences, Inc., priority 2013, published 2025)", "key": {"sleep EEG parameters": {"tested_on": "sleep EEG parameters", "assay": "Polysomnography / sleep EEG study", "type": "in vivo, human", "conditions": "escitalopram 20 mg", "method": "In this study, certain pharmacodynamic sleep parameters predictive of antidepressant activity were monitored and measured. […] Three doses of SON-117 were tested (1 mg, 3 mg, 7.5 mg). […] In an embodiment, SON-117 affected sleep. In an embodiment, SON-117 affected REM sleep.\n[…] subjects were tested in a sleep study, where 23 subjects were dosed with SON-117 in amounts of 1 mg up to 7.5 mg; 12 were given a placebo; and 8 were given escitalopram at a dose of 20 mg. Sleep was recorded in individual sound-attenuated and comfortably furnished bedrooms. During bedtime hours subjects were recumbent and the lights are turned off. The polysomnographic montage consisted of 4 EEG channels (C3A2, O1A2, C4A1, and O2A1), bilateral electro-oculograms, and 2 submental electromyograms. The different sleep parameters were derived with the Hypnos software from the visual scoring of the recordings at 30 sec epochs according to Rechtschaffen and Kales (1968) rules. Sleep continuity parameters comprise both sleep initiation and sleep maintenance variables. Sleep architecture parameters, which include REM sleep parameters, comprise stages distribution variables documenting duration and proportion of the different sleep stages and sleep profile variables that provide an outline on the time course of the different sleep stages during the recording period. All night sleep EEG spectral analysis was carried out on the C3-A2 derivation by means a fast Fourrier transform algorithm. Epoch length was 2 seconds at a sampling rate of 256 Hz and truncating error was reduced by applying a Hanning window. Sleep visual scores of each 30-second epoch was synchronised with power density values in order to allow the analysis of power density within in specific period of time such as REM and non REM sleep."}, "[1]": {"assay": "Pharmacokinetic study, plasma concentration on day 1 and day 14", "type": "in vivo", "conditions": "day 1 and day 14 after dosing with SON-117", "excerpt": "were examined in pharmacokinetic studies.\nFIG. 34 illustrates the plasma concentration of SON-117 as a function of time on day 1 after dosing with SON-117. FIG. 35 illustrates the plasma concentration of SON-117 as a function of time on day 14 after dosing with SON˜117.\nFIG. 36 illustrates the plasma concentration of the M1 metabolite of SON-117 as a function of time on day 1 after dosing with SON-117. FIG. 37 illustrates the plasma concentration of the M1 metabolite of SON-117 as a function of time on day 14 after dosing with SON-117."}, "[2]": {"tested_on": "animals exposed to chronic mild stress", "assay": "Chronic mild stress (CMS) model, consumption of 1% sucrose solution", "type": "in vivo, rat", "method": "Male Wistar rats (Charles River, Germany) were brought into the laboratory one month before the start of the experiment. Except as described below, the animals were singly housed with food and water freely available, and were maintained on a 12-h light/dark cycle, in a constant temperature (22±2° C.) and humidity (50±5%) conditions.\nAfter a period of 2 weeks of adaptation to laboratory and housing conditions, the animals were first trained to consume a 1% sucrose solution; training consisted of nine 1 h baseline tests in which sucrose was presented, in the home cage, following 14 h food and water deprivation; the sucrose intake was measured by weighing pre-weighed bottles containing the sucrose solution, at the end of the test. Subsequently, the sucrose consumption was monitored, under similar conditions, at weekly intervals throughout the whole experiment.\nOn the basis of their sucrose intakes in the final baseline test, the animals were divided into two matched groups. One group of animals was subjected to the chronic mild stress procedure for a period of 8 consecutive weeks. Each week of stress regime consisted of: two periods of food or water deprivation, two periods of 45 degree cage tilt, two periods of intermittent illumination (lights on and off every 2 h), two periods of soiled cage (250 ml water in sawdust bedding), one period of paired housing, two periods of low intensity stroboscopic illumination (150 flashes/min), and three periods of no stress. All stressors were 10-14 h of duration and were applied individually and continuously, day and night. Control animals were housed in separate rooms and had no contact with the stressed animals. They were deprived of food and water for the 14 h preceding each sucrose test, but otherwise food and water were freely available in the home cage.\nOn the basis of their sucrose intakes following initial 2 weeks of stress, both the stressed and the control groups were each divided further into matched subgroups (n=8), and for subsequent five weeks they received once daily intraperitoneal injections of vehicle (0.5% hydroxypropylmethylcellulose, 1 ml/kg), SON-117 (0.001, 0.01, 0.1 and 1 mg/kg) or imipramine (10 mg/kg) as the reference treatment. The drugs were administered at approx. 10:00 AM and the weekly sucrose tests were carried out 24 h following the last drug injections. After five weeks all treatments were terminated and one additional sucrose test was carried out after one week of withdrawal. Stress was continued throughout the period of treatment and withdrawal.\n(§1) After completion of the administration and withdrawal period, all control and stressed animals were placed in an open field (100 cm in diameter, 35 cm high) and allowed to explore two identical objects (cylinder-shaped object with walls painted white, 7 cm in diameter, 11 cm high) for the time required to complete 15 s of exploration of either object. For the retention trial conducted one hour later, one of the objects presented previously was replaced with a novel object (prism-shaped object with walls painted black, 5 cm wide, 14 cm high). Rats were returned to the open field for 5 min and the duration of exploration (i.e. sitting in close proximity to the objects, sniffing or touching them) of each object was measured separately by a trained observer. The data were calculated according to the following formula: [time of novel object exploration divided by time of novel plus familiar object exploration multiplied by 100]. The CMS and NOR data were analyzed by multiple analyses of variance with three between-subjects factors (stress/control, drug treatments and intakes in successive sucrose tests). The Fisher's LSD test was used for the post-hoc comparisons of means."}, "[3]": {"tested_on": "animals exposed to chronic mild stress", "assay": "Novel object recognition test after CMS and treatment withdrawal", "type": "in vivo, rat", "conditions": "imipramine 10 mg/kg IP, one week after withdrawal", "excerpt": "as §1"}, "[4]": {"tested_on": "dopamine release in the rat prefrontal cortex", "assay": "Microdialysis: dopamine release in prefrontal cortex after I.P. administration", "type": "in vivo", "conditions": "3 mg/kg IP, n = 8", "method": "The aim of the study was to evaluate, using microdialysis, the effects of an intraperitoneal (I.P.) administration in rats of three different doses of SON-117 on dopamine and its metabolites, serotonin and its metabolite (5-HIAA), and norepinephrine levels in prefrontal cortex.\nThirty-two adult male Wistar rats were used for the whole study (4 groups of eight animals planned for the study, Table 1).\nSurgery was performed on rats weighing about 300 g at the beginning of the experiments. Rats were anaesthetized with Ketamine (50 mg/kg) & Xylazine (15 mg/kg) by intramuscular administration. The animals were placed in a stereotaxic apparatus in the flat-skull position at a constant setting of −3.3 mm between ear bars and the incisor bar. The animals were treated with a local anesthesic (xylocaine 1%, Astra Zeneca) and an analgesic (Temgesic, from Schering Plough, 0.05 mg/kg, s.c.). A rostrocaudal midline incision was made with a lancet to expose the dorsal skull surface. The “stereotaxic zero” was defined by the Bregma in accordance with Paxinos and Watson's atlas (1986). A hole was drilled in the skull with a drill and the meninges were pierced with a sterile needle to implant a CMA12 guide cannula which later received the dialysis probe.\nCoordinates used for implanting guide cannula in prefrontal cortex from Bregma were anteroposterior 3.7 mm, mediolateral 0.8 mm, and dorsoventral −2 mm (top of the probe was at −5 mm). The guide cannula was fixed to the skull with two stainless steel screws (1.88 mm outside diameter) anchored. An application of dental cement was added. A plastic collar allowed each animal to be tethered to a Swivel assembly of the CMA 120 awake animal system. Following surgery, rats were kept in individual cages and allowed to recover for a minimum of 3-5 days before the experimentation. The rats were handled and put in plastic bowl for 10 min at least every day to habituate the animals to their new environment for the dialysis. An I.P. administration with saline was also performed every day.\nDialysis probes (CMA12/3 mm, membrane, 20 kD cut-off, Carnegie Medicine, Stockholm, Sweden), were carefully washed before inserting into the guide cannula. The wash was performed with the artificial cerebrospinal fluid (aCSF) medium (NaCl 147 mM, KCl 2.7 mM, CaCl2 1.2 mM, MgCl2 0.85 mM) at room temperature. The dialysis system was then equilibrated at 20° C. at a perfusion rate of 1 μl/min with a Carnegie pump (CMA100). All catheters (FEP tubing, internal volume of 1.2 μl/10 cm, and tubing adaptors) used for microdialysis were treated in the same conditions.\nThe probes duly prepared were inserted into the guide cannula and the CMA120 Swivel assembly secured to the animal using a plastic collar. Flow through the dialysis probe with aCSF was maintained at a rate of 1 μl/min during the whole experimentation. The first four fractions (corresponding to 2 hours) were discarded to avoid the effects of parenchymal disturbance and to ensure that an approximate steady-state level was reached. Fractions were then collected over a period of 8.5 h during which time the animals remained quiet. The dialysates were automatically collected with an autosampler (microfraction collector CMA 140, Carnegie Medicin) and stored at −80° C. until analysis. […] Perfusion was then maintained for 7 hours with aCSF. The dialysates (30 μl) were collected into 300 μl vials, transferred into dry ice and then kept frozen (−80° C.) until analysis. Frozen samples were shipped to a partner for analysis. At the end of the microdialysis study, a PBS with colored ink was perfused through the probe in order to visualize the dialyzed area.\nCatecholamine assay: Concentrations of dopamine, DOPAC, HVA, 5-HIAA, 5-HT, and norepinephrin were determined for each sample by HPLC coupled with electrochemical detection."}}, "note": "“Also recorded” adds a separate entry of the source.", "data": [{"smiles": "CN(C)CCC[C@@]1(c2ccc(F)cc2)OCc2cc(C#N)ccc21", "note": "[escitalopram, reference compound]", "values": [{"measurement": "pharmacodynamic sleep parameters, positive comparator", "setting": "sleep EEG parameters", "value": "behaved as expected"}]}, {"smiles": "OCc1nnc(-c2cc3c(OC[C@@H](O)CN4CCC(c5ccc(Cl)c(Cl)c5)CC4)cccc3o2)o1", "note": "[M1]", "values": [{"measurement": "AUC, dependence on dose", "setting": "[1]", "value": "dose-proportional increase"}, {"measurement": "Cmax, dependence on dose", "setting": "[1]", "value": "dose-proportional increase"}]}, {"smiles": "CN(C)CCCN1c2ccccc2CCc2ccccc21", "note": "[imipramine, reference compound]", "values": [{"measurement": "treatment time until increase in sucrose intake in stressed animals reached statistical significance vs Week 0", "setting": "[2]; imipramine 10 mg/kg IP", "value": "four"}, {"measurement": "effect on sucrose intake one week after cessation of treatment", "setting": "[2]; imipramine 10 mg/kg IP, stressed animals", "value": "maintained"}, {"measurement": "sucrose intake in control animals, compared to vehicle", "setting": "[2]; once daily IP for five weeks, imipramine 10 mg/kg, SON-117 all doses (0.001, 0.01, 0.1 and 1 mg/kg)", "value": "no significant effect"}, {"measurement": "sucrose consumption in stressed animals, compared to vehicle", "setting": "[2]; once daily IP for five weeks, imipramine 10 mg/kg, SON-117 all four doses (0.001-1 mg/kg)", "value": "gradually increased; also recorded: fully reversed"}, {"measurement": "recognition index in control animals", "setting": "[3]", "value": "decreased"}, {"measurement": "effect against the CMS-induced deficit in recognition index", "setting": "[3]; stressed animals", "value": "ineffective"}]}, {"smiles": "Cc1nnc(-c2cc3c(OC[C@@H](O)CN4CCC(c5ccc(Cl)c(Cl)c5)CC4)cccc3o2)o1.Cl", "note": "[SON117]", "values": [{"measurement": "Dopamine release, MEAN", "setting": "[4]; T0-T30 min", "value": "129.47 % of respective basal"}, {"measurement": "Dopamine release, MEAN", "setting": "[4]; T30-T1 h", "value": "110.54 % of respective basal"}, {"measurement": "Dopamine release, MEAN", "setting": "[4]; T1 h 30-T2 h", "value": "134.25 % of respective basal"}, {"measurement": "Dopamine release, MEAN", "setting": "[4]; T1 h-T1 h 30", "value": "169.31 % of respective basal"}, {"measurement": "Dopamine release, MEAN", "setting": "[4]; T2 h 30-T3 h", "value": "115.17 % of respective basal"}, {"measurement": "Dopamine release, MEAN", "setting": "[4]; T2 h-T2 h 30", "value": "106.18 % of respective basal"}, {"measurement": "Dopamine release, MEAN", "setting": "[4]; T3 h 30-T4 h", "value": "113.02 % of respective basal"}, {"measurement": "Dopamine release, MEAN", "setting": "[4]; T3 h-T3 h 30", "value": "117.50 % of respective basal"}, {"measurement": "Dopamine release, MEAN", "setting": "[4]; T4 h 30-T5 h", "value": "111.42 % of respective basal"}, {"measurement": "Dopamine release, MEAN", "setting": "[4]; T4 h-T4 h 30", "value": "126.77 % of respective basal"}, {"measurement": "Dopamine release, MEAN", "setting": "[4]; T5 h 30-T6 h", "value": "148.15 % of respective basal"}, {"measurement": "Dopamine release, MEAN", "setting": "[4]; T5 h-T5 h 30", "value": "123.35 % of respective basal"}, {"measurement": "Dopamine release, MEAN", "setting": "[4]; T6 h 30-T7 h", "value": "167.43 % of respective basal"}, {"measurement": "Dopamine release, MEAN", "setting": "[4]; T6 h-T6 h 30", "value": "131.63 % of respective basal"}, {"measurement": "Dopamine release, MEAN", "setting": "[4]; T-30 min-T0 (before administration)", "value": "96.15 % of respective basal"}, {"measurement": "Dopamine release, MEAN", "setting": "[4]; T-1 h 30-T-1 h (before administration)", "value": "104.41 % of respective basal"}, {"measurement": "Dopamine release, MEAN", "setting": "[4]; T-1 h-T-30 min (before administration)", "value": "99.29 % of respective basal"}]}]}
